Reference: patent US12023335B2, “Method for treating pancreatic cancer” (PTC THERAPEUTICS, INC., priority 2018, dated 2024)
“Also recorded” adds a separate entry of the source.

Key:
[1] = test system: Aspc1 cells; assay: Active caspase 3 apoptosis flow cytometry in Aspc1 cells; type: cell-based, human; conditions: 24, 48, 72 hours, relative to vehicle (FIGS. 3a, 3b)
Experimental: For active Caspase-3 (ActCasp3) staining, the Caspase 3 (active) FITC Staining Kit (Abcam, ab65613) was used according to manufacturer's instructions. Cells were seeded in 12-well plates such that ˜16 hours later they would be approximately 50-60% confluent. […] Samples were analyzed on a BD LSR II™ and analyzed by FlowJo software. (FIG. 3a and FIG. 3b)

[2] = Compound 1 levels in plasma, quadriceps and PDA tissue of KPC mice; type: in vivo; conditions: 24 hours after single oral dose 10 mg/kg (FIG. 5a)
Experimental: Blood plasma and tissue samples to be used for analysis were immediately frozen on dry ice and stored at −80° C. until analysis. Concentrations of Compound 1 in samples were quantified using high-performance liquid chromatography with tandem mass spectrometry (LC-MS/MS). Compound 1 and its internal standard (deuterated Compound 1) were recovered by protein precipitation extraction from samples.
For the pharmacokinetic study that assessed plasma, quadriceps muscle, and tumor tissue following a single dose of Compound 1 the assay conditions were as follows (FIG. 5a):
Plasma: A standard curve was made to cover concentrations between 0.002 ug/mL and 6.0 ug/mL. the LLOQ for Compound 1 (either version) in plasma was 0.001 μg/mL
Quadriceps muscle: A standard curve was made to cover concentrations between 0.001 μg/g wet tissue and 3.0 μg/g wet tissue. The LLOQ for Compound 1 (either version) was 0.01 μg/g wet tissue.
Tumor tissue: A standard curve was made to cover concentrations between 0.001 μg/g wet tissue and 3.0 μg/g wet tissue. The LLOQ for Compound 1 (either version) was 0.02 μg/g wet tissue.

[3] = test system: J1002VEH and J1002TAM cells; assay: Viability and dose response of J1002VEH and J1002TAM cells (AlamarBlue); type: cell-based, mouse
Experimental: For proliferation curves, cells were plated in 96-well plates (Corning, 3603) and allowed to seed overnight. Replicate plates were plated for each time point since viability measurements were an endpoint procedure. The following day, cells were treated with Compound at indicated concentrations and treated with DMSO at the highest used concentration (always below 0.003%). Cells were treated for 96 hours, and viability was determined every 24 hours using AlamarBlue reagent (BioRad, BUF012B). Briefly, 10 μL of AlamarBlue was added to each well (100 μL), mixed briefly, and allowed to incubate at 37° C. and 5% CO2 for 4 hours. Following incubation, fluorescence was measured on a Promega multimode microplate reader. For analysis, background levels were subtracted from raw results, which were then normalized to be represented as a fold change compared to DMSO-treated cells on Day 0. All assays were carried out in at least triplicate with 4-8 technical replicates per treatment group, per experiment. (FIG. 1a and FIG. 10b)
For dose response curves, cells were plated in 96-well plates (Corning, 3603) and allowed to seed overnight. The following day, cells were treated with Compound 1. […] Cells were treated for 72 hours and then viability was determined using AlamarBlue reagent (BioRad, BUF012B). […] Following incubation, fluorescence was measured on a Promega multimode microplate reader. […]

[4] = test system: tubulin; assay: Immunocytochemistry of tubulin and DAPI in Aspc1 cells; type: cell-based, human; conditions: 24 hours, relative to vehicle (FIGS. 11c, 11d)
Experimental: Cells were seeded onto glass coverslips in 12-well plates. Coverslips were prepared by soaking in 1N HCl (60° C., 6 hours), washing in 70% ethanol, and coating with poly-l-lysine (Sigma, P5899) according to manufacturer's instructions. Cells were seeded such that they would be 50% confluent the following day. Cells were then treated with vehicle (DMSO, <0.003%) or 1 μM Compound 1 and incubated for 24 hours. Following treatment, cells were washed with TBS and free tubulin was extracted with Brinkley Buffer 1980 (80 mM PIPES pH 6.8, 1 mM MgCl2, 1 mM EGTA) supplemented with 4 mM EGTA and 0.5% Triton-X (30 seconds). After extraction, cells were fixed for 20 minutes in 4% formaldehyde diluted in Cytoskeleton Buffer (10 mM MES pH 6.1, 138 mM KCl, 3 mM MgCl2, 2 mM EGTA) supplemented with 0.32M sucrose. […]
Confocal imaging was performed using an A1 laser scanning confocal attachment on an Eclipse Ti microscope stand using a 60x/1.49 ApoTIRF oil-immersion objective and standard lasers and filter sets (Nikon Instruments, Melville, N.Y.). […] Images were visualized, analyzed, and prepared for publication using the Fiji distribution of ImageJ (Schindelin J, Arganda-Carreras I, Frise E, et al. Fiji: an open-source platform for biological-image analysis. Nature Methods 2012; 9:676-682). […]

In the case of Cc1nc2ccc(F)cc2n1-c1nc(N)c(F)c(Nc2ccc(C(F)(F)F)cc2)n1 [Compound 1, 5-fluoro-2-(6-fluoro-2-methyl-1H-benzo[d]imidazol-1-yl)-N4-[4-(trifluoromethyl)phenyl]pyrimidine-4,6-diamine], the “total apoptotic Aspc1 cells (active caspase 3+)” value [1] is reported as “time-dependent increase in cell biomarkers that indicate a corresponding increase in cell apoptosis”, the “distribution into PDA tumor tissue” value [2] is reported as “effective biodistribution into tumor tissues; also recorded: distributes into PDA tissues” and the “relative viability of J1002VEH and J1002TAM cells” value ([3]; 0.1 μM or 1.0 μM over 96 hours (FIG. 10b)) is reported as “dose and time-dependent decrease in viability of cells dependent on BMI-1 protein expression”. For the same compound, the “dose response in J1002VEH and J1002TAM cells” value ([3]; 72 hours (FIG. 10c)) was “sub-M activity toward reduction in BMI-1 protein expression” and the “tubulin staining in Aspc1 cells” value [4] was “significant reduction in tubulin formation”.
